Data as given in US20130184273A1, “BICYCLIC PYRIMIDINES” (Bayer Intellectual Property GmbH, priority 2010, published 2013).

What was measured:
[1] = test system: p-AKT S473 in PC3 human prostate tumours; assay: In vivo xenograft mechanism of action study; parameters: species or system athymic nude mice; settings: PC3 tumours xenografted onto nude mice, treated once with 50 mg/kg p.o., 5 hours post treatment
Text: To this extent PC3 human prostate tumours were xenografted onto athymic nude mice. PC3 tumour cells were cultivated according to ATCC protocols in recommended media contained 10% FCS and harvested for transplantation in a subconfluent (70%) state. 3×10^6 tumour cells suspended in 50% Matrigel were subcutaneously implantated into the inguinal region of male mice. Tumours were allowed to grow to the predetermined size of 60-80 mm^2. When the tumours were approximately in size, the animals were randomized to treatment and control groups (groups size: 9 animals) and treatment was started. Animals were treated once with 50 mg/kg compound or vehicle per oral administration (p.o.) carried out via a gastric tube. Treatment of each animal was based on individual body weight. At 2, 5 and 24 hours post treatment 3 animals each were sacrificed and the PC3 tumours excised. Tumour samples of approximately 5×5×5 mm were lysed on ice in MSD lysis buffer in the presence of protease and phosphatase inhibitors using Tissue Lyzer (Qiagen, Germany). The levels of p-AKT S473 in extracts from tumour tissue were analysed in an ELISA based assay. This assay is based on the “Akt Duplex” of the MULTI-SPOT® Assay System (Fa. Meso Scale Discovery, Cat #N41100B-1) following manufacturers instructions. Each assay used 20 μg of protein extract and measured total AKT and p-AKT content simultaneously in one well. All measurements where at least done in duplicates and confirmed by independent repetition.
Values for P-AKT are expressed as percentage of P-AKT level compared to total-AKT content of the extracts. Vehicle treated tumours were analyzed to determine the basal level of P-AKT in this model and used as a normalization control to determine the % P-AKT relative to vehicle levels.

[2] = test system: KPL-4 breast cancer cell line; assay: Tumor cell proliferation assay (CellTiter-Glo); type: cell-based; settings: KPL4, 72 h drug exposure
Description: Compounds were tested in a cell-based assay that measures the capacity of the compounds to inhibit tumour cell proliferation following a 72 h drug exposure. Cell viability is determined using CellTiter-Glow® (CTG, Promega, cat #G7571/2/3). The CellTiter-Glo® Luminescent Cell Viability Assay is a homogeneous method to determine the number of viable cells in culture. Detection is based on using the luciferase reaction to measure the amount of ATP from viable cells. The amount of ATP in cells correlates with cell viability. Within minutes after a loss of membrane integrity, cells lose the ability to synthesize ATP, and endogenous ATPases destroy any remaining ATP; thus the levels of ATP fall precipitously.
Cells were plated at 3000-5000 cells/well (depending on the cell lines) in 90 μL growth medium on MTPs (Corning; #3603, black plate, clear flat bottom). For each cell line assayed, cells were plated onto a separate plate for determination of […] at t=0 hour and t=72 hour time points. Following overnight incubation at 37° C., chemiluminescence values for the t=0 samples were determined after adding 10 μl medium and 100 μl CTG solution according to manufacture protocol. Plates for the t=72 hour time points were treated with compounds diluted into growth medium at ten times final concentration added in 10 μL to the cell culture plate. Cells were then incubated for 72 hours at 37° C. Chemiluminescence values for the t=72 hour samples were determined. […] Experiments were controlled using a reference compound as standard.

[3] = test system: phospho-AKT at S473 in KPL4 breast tumour cell line; assay: Cellular p-AKT1/2/3-S473 assay; type: cell-based; settings: KPL4 cells, treated with compounds for 2 hours; read-out: pAKT-S743 median IC50
Description: The molecular mechanism of action was investigated in a set of experiments to assess the inhibition of the PI3K-AKT-mTOR pathway in responsive cell lines such as KPL4 breast tumour cell line (PIK3CAH1047R, HER20/E and hormone independent). The phospho-substrates of PI3K-AKT-mTOR axis were used as the read-outs to reflect pathway inhibition. Cells were seeded at 60-80% confluency per well in 96-well cell culture plates. After overnight incubation at 37° C. 5% CO2, cells were treated with compounds and vehicle at 37° C. for 2 hours. Thereafter, cells were lysed in 150 μl lysis buffer and the levels of phospho-AKT at T308 and S473 and p-4E-BP1 at T70 sites were determined with the corresponding AlphaScreen® SureFire® assay kits (Perkin Elmer: 4E-BP1 Assay Kit Cat # TRG4E2S10K; Akt 1/2/3 p-Ser 473 #TGRA4S500 and Akt 1/2/3 p-Thr 308 #TGRA3S500 as well as IgG detection Kit #6760617M) as described in the manuals. All measurements where at least done in duplicates and confirmed by independent repetition.
Alternatively pAKT-S473 was measured using the “Akt Duplex” of the MULTI-SPOT® Assay System (Fa. Meso Scale Discovery, Cat#N41100B-1) following manufacturers instructions. Each assay used 20 μg of protein extract and measured total AKT and p-AKT content simultaneously in one well. All measurements where at least done in duplicates and confirmed by independent repetition. Values for P-AKT are expressed as percentage of P-AKT level compared to total-AKT content of the extracts.

Row | IC50 [2] [nM] | IC50 [3] [nM] | SMILES | P-AKT % relative to control at 5 hours [1] [%]
1 | 1270 | 230 | CS(=O)(=O)c1ccc(-c2cnc3nc(-c4ccc(C5(N)CCC5)cc4)c(-c4ccccc4)cn23)cc1 [Example 4-0, 1-{4-[3-(4-Methansulfonyl-phenyl)-6-phenyl-imidazo[1,2-a]pyrimidin-7-yl]-phenyl}-cyclobutylamine] | 
2 | 2540 | 920 | NC1(c2ccc(-c3nc4ncc(-c5ccc(F)cc5)n4cc3-c3ccccc3)cc2)CCC1 [Example 6-0, 1-{4-[3-(4-Fluorophenyl)-6-phenyl-imidazo[1,2-a]pyrimidin-7-yl]-phenyl}-cyclobutylamine] | 
3 | 10000 | 1150 | NC(=O)c1cccc(-c2cnc3nc(-c4ccc(C5(N)CCC5)cc4)c(-c4ccccc4)cn23)c1 [Example 6-2, 3-{7-[4-(1-Amino-cyclobutyl)-phenyl]-6-phenyl-imidazo[1,2-a]pyrimidin-3-yl}-benzamide] | 
4 | 5110 | 240 | NC1(c2ccc(-c3nc4ncc(-c5cn[nH]c5)n4cc3-c3ccccc3)cc2)CCC1 [Example 6-3, 1-{4-[6-Phenyl-3-(1H-pyrazol-4-yl)-imidazo[1,2-a]pyrimidin-7-yl]-phenyl}-cyclobutylamine] | 

Continued, molecule first:

Row | SMILES | IC50 [2] [nM] | IC50 [3] [nM] | P-AKT % relative to control at 5 hours [1] [%]
5 | Cc1nc2nc(-c3ccc(C4(N)CCC4)cc3)c(-c3ccccc3)cn2n1 [Example 1-0, 1-[4-(2-methyl-6-phenyl-[1,2,4]triazolo[1,5-a]pyrimidin-5-yl)-phenyl]-cyclobutylamine] | 3220 |  | 3.2
6 | Cc1cn2cc(-c3ccccc3)c(-c3ccc(C4(N)CCC4)cc3)nc2n1 [Example 2-1, 1-[4-(2-Methyl-6-phenyl-imidazo[1,2-a]pyrimidin-7-yl)-phenyl]-cyclobutylamine] | 1970 |  | 6.7
7 | Cn1cc(-c2nc3nc(-c4ccc(C5(N)CCC5)cc4)c(-c4ccccc4)cn3n2)cn1 [Example 5-2, 1-{4-[2-(1-methyl-1H-pyrazol-4-yl)-6-phenyl-[1,2,4]triazolo[1,5-a]pyrimidin-5-yl]-phenyl}-cyclobutylamine] | 930 | 130 | 17.9
